The target in test [1] is Sulfonylurea receptors; K-ATP channels (Sus scrofa). Briefly: In vitro functional potassium channel opening activity in tissue strips obtained from Landrace pig bladders(LPD).
Test [2] has as its target Sulfonylurea receptor 2, Kir6.2 (Homo sapiens, UniProt O60706+Q14654). Briefly: (§1) In vitro ATP-sensitive potassium channel (KATP) activity in cells expressing human KATP channels Kir6.2 and sulfonylurea receptor 2B. It counts as functional.
The target of test [3] is Sulfonylurea receptor 2, Kir6.2 (Homo sapiens) (UniProt Q14654+O60706). The description is as §1. It is filed as functional. The following applies: filed as antagonist.

Sequence of Sulfonylurea receptor 2, Kir6.2 (Q14654 whole entry): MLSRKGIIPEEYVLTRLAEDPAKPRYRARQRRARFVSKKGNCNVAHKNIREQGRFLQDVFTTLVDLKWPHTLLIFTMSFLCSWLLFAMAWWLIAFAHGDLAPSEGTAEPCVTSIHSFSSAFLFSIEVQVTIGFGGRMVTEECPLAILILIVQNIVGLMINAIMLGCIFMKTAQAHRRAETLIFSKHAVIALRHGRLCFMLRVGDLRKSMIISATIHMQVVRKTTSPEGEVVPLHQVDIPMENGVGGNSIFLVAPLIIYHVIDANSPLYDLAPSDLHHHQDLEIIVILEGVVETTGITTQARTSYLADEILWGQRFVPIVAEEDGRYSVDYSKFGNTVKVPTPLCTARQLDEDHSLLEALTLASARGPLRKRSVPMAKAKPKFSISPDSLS
Sequence of Sulfonylurea receptor 2, Kir6.2 (O60706 whole entry): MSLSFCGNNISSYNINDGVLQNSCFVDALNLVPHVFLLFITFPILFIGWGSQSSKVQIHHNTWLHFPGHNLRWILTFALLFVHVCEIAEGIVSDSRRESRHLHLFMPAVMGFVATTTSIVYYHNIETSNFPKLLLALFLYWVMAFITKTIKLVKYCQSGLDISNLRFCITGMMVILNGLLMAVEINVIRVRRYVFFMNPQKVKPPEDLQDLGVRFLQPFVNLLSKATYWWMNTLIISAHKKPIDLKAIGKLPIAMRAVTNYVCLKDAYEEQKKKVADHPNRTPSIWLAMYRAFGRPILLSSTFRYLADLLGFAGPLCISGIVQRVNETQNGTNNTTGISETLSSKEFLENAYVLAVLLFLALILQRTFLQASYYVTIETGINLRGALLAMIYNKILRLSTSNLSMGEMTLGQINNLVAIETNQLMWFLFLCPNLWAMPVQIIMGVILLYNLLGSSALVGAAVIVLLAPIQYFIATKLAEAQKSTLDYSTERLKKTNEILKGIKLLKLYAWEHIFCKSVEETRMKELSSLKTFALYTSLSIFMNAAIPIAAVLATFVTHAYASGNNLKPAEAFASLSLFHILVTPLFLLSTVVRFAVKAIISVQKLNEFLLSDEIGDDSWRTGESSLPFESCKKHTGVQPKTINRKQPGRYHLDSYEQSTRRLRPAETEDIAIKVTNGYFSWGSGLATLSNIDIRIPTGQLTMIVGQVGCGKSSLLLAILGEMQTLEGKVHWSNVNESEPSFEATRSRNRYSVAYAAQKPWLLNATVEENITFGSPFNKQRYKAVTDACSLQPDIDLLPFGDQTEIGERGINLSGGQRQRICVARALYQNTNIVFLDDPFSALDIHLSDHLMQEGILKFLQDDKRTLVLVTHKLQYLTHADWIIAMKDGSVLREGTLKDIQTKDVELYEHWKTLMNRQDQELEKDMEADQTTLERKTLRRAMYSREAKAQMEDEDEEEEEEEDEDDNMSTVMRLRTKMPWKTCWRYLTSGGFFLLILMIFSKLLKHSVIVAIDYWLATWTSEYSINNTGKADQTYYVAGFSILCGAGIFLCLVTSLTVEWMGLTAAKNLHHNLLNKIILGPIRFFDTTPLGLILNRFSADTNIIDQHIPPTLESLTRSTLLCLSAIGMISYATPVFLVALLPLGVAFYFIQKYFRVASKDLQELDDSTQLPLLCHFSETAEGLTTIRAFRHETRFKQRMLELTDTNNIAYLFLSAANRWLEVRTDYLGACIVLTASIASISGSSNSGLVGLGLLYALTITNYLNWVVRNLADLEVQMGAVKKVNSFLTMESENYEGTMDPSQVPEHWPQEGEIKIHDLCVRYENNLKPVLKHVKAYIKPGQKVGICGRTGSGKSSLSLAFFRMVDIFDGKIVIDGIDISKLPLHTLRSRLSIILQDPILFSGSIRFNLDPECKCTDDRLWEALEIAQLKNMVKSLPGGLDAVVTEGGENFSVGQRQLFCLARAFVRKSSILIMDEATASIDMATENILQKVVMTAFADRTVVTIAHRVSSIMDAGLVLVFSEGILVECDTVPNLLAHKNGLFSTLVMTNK

With `CC(Cl)(Cl)C(NC(=O)c1cccc(Cl)c1)N/C(=N/c1cccnc1)NC#N` (stereo not drawn), the EC50 (as a rule, the concentration needed to bring the measured effect to its halfway point) in test [1] was 1.58 µM; in test [2] it was 3.16 µM.

The compound `Cc1ccc(C(=O)NC(/N=C(\NC#N)Nc2cccnc2)C(C)(Cl)Cl)cc1` (stereo not drawn) gave an EC50 in test [2] of 2.51 µM.

In the case of `CC(C)(C)C(NC(=O)c1ccc(Cl)cc1)N/C(S)=N/c1cccnc1` (stereo not drawn), the EC50 in test [1] was 7.94 µM; in test [2], 2.51 µM.

In test [2], `C=CC(C)(C)CC(NC(=O)c1ccc(Cl)cc1)N/C(=N/c1cccnc1)NC#N` (stereo not drawn) had an EC50 of 10 µM.

As for `N#CN/C(=N\C(NC(=O)c1ccc(Cl)cc1)C(Cl)(Cl)Cl)Nc1cccnc1` (stereo not drawn), the EC50 is 2 µM in test [1] and 1 µM in test [2].

With `CC(Cl)(Cl)C(NC(=O)c1cccc(F)c1)N/C(=N/c1cccnc1)NC#N` (stereo not drawn), the EC50 in test [2] is 3.98 µM.

Consider `O=C(NC(NC(=S)Nc1cccnc1)C(Cl)(Cl)Cl)c1ccc(Cl)cc1` (stereo not drawn), for which the EC50 in test [1] is 2 µM; in test [2], 0.794 µM.

Take `CC(C)(C)C(NC(=O)c1ccc(Cl)cc1)N/C(=N/c1cccnc1)NC#N` (stereo not drawn): the EC50 in test [1] was 20 µM; in test [2], 6.31 µM.

The compound `Cc1cccc(C(=O)NC(/N=C(\NC#N)Nc2cccnc2)C(C)(Cl)Cl)c1` (stereo not drawn) gave an EC50 in test [2] of 5.01 µM.

Take `CN(C)S(=O)(=O)N/C(=N\C(NC(=O)c1ccc(Cl)cc1)C(C)(C)C)Nc1cccnc1` (stereo not drawn): in test [2], the EC50 was > 100 µM.

For the compound `CC(C)(C)C(NC(=O)c1ccc(Cl)cc1)N/C(=N/c1cccnc1)N[N+](=O)[O-]` (stereo not drawn), the EC50 in test [1] was 7.94 µM; in test [2] it was 31.6 µM.

Turning to `CC(C)(C)C(NC(=O)c1ccc(Cl)cc1)N/C(=C/[N+](=O)[O-])Nc1cccnc1` (stereo not drawn), the EC50 in test [2] was > 100 µM.

Regarding `CCC(CC)(CCC#N)C(NC(=O)c1ccc(Cl)cc1)NC(=NC#N)Nc1cccnc1` (stereo not drawn), the EC50 in test [1] and in test [2] was 5.01 µM in each case.

Turning to `CC(Cl)(Cl)C(NC(=O)c1ccc(Cl)cc1)NC(=NC#N)Nc1cccnc1` (stereo not drawn), the EC50 in test [1] was 2.51 µM; in test [2], 2 µM.

For the compound `CC(C)(C)C(NC(=O)c1ccc(Cl)cc1)NC(Nc1cccnc1)=C(C#N)C#N` (stereo not drawn), the “Log EC50” value in test [3] was “Antagonist”.

In the case of `CC(Cl)(Cl)[C@H](NC(=O)c1ccc(Cl)cc1)N/C(=N/c1cccnc1)NC#N`, the EC50 in test [1] is 20 µM; in test [2], 10 µM.

Regarding `C=CCC(C)(C)C(NC(=O)c1ccc(Cl)cc1)NC(=NC#N)Nc1cccnc1` (stereo not drawn), in test [2], the midpoint of the response, the EC50, lay at 20 µM.

In test [2], `CC(Cl)(Cl)C(NC(=O)c1ccc(Br)cc1)N/C(=N/c1cccnc1)NC#N` (stereo not drawn) gave an EC50 of 10 µM.

For `CC(Cl)(Cl)C(NC(=O)c1cc(F)cc(F)c1)N/C(=N/c1cccnc1)NC#N` (stereo not drawn), the EC50 in test [1] is 5.01 µM; in test [2] it was 3.98 µM.

Take `CCCCC(C)(C)C(NC(=O)c1ccc(Cl)cc1)N/C(=N/c1cccnc1)NC#N` (stereo not drawn): the EC50 in test [2] is > 100 µM.

For `CC(Cl)(Cl)[C@@H](NC(=O)c1ccc(Cl)cc1)N/C(=N/C#N)Nc1cccnc1`, the EC50 in test [1] is 5.01 µM; in test [2], 0.316 µM.

Turning to `CC(C)(C)C(NC(=O)c1ccc(Cl)cc1)N/C(=N/c1cccnc1)NS(N)(=O)=O` (stereo not drawn), the EC50 in test [2] was > 100 µM.

Source of the values: ChEMBL document CHEMBL1148468, “Design and synthesis of novel cyanoguanidine ATP-sensitive potassium channel openers for the treatment of overactive bladder” (Bioorg Med Chem Lett, 2004).
